“And” between values parts separate entries of the source, which are not always exact repeats. Identical values can stand only once.
Assays:
Type in all cases: cell-based
[1] = target: T1, Maxi-K α1/β3 (Homo sapiens, UniProt Q12791); assay: Tl+-flux assay in HEK-293 cells, Maxi-K α1/β3; conditions: HEK293; 10 µM test compound; relative to control paxilline; read-out: Percent Inhibition ± SEM, Maxi-K α1/β3
T1 construct: expressed in transfected cells; host or cells: HEK293
Description: (§1) Having executed our plan to prepare analogs across the identified regions of the chemotype (Figure 2), we identified two analogs for further profiling and evaluation. […] Desiring to add a second compound with some measure of structural differences, we also chose another submicromolar SLACK inhibitor 66 (VU0936154). Whereas 40 contains an ether linker and a halogenated phenyl group in the eastern region, […] contains an N-methyl linker and a phenyl group with a more polar cyano substituent. We first screened these analogs at 10 µM versus our in-house panel of ion channel targets using Tl^+-flux assays in HEK-293 cells expressing the human target of interest. […] Included in this set are Slo family members SLICK and two isoforms of Maxi-K, as well as several different K^+, Na^+, and Ca^2+ channels (Table 6). […] Of note was the excellent selectivity versus the broader panel of targets for both compounds, including versus the hERG channel.
(§2) Stably transfected monoclonal HEK293 cell lines expressing SLICK, Maxi-K α1/β3, Maxi-K α1/β4, CaV3.2, GIRK 1/2, KV2.1, KV7.2, NaV1.7, and TASK-1 were generated as previously described. […]
(§3) The Tl^+ flux assays were conducted as previously described, with modifications optimized for individual cell lines as described below. […] Cell plates were then loaded onto a Panoptic kinetic imaging plate reader (WaveFront Biosciences, Franklin, TN, USA). […]

[2] = target: T2, hERG (Homo sapiens, UniProt Q12809); assay: Tl+-flux assay in HEK-293 cells, hERG; conditions: HEK293 cells stably expressing hERG, pH 7.3, 10 µM test compound, relative to control bepridil, read-out: Percent Inhibition ± SEM, hERG
T2 construct: expressed in transfected cells; host or cells: HEK293
Description: as §1, §2, §3

[3] = target: T3, CaV3.2 (Homo sapiens, UniProt O95180); assay: Tl+-flux assay in HEK-293 cells, CaV3.2; conditions: HEK293; 10 µM test compound; relative to control bepridil; read-out: Percent Inhibition ± SEM, CaV3.2
T3 construct: expressed in transfected cells; host or cells: HEK293
Description: as §1, §2, §3

[4] = target: T4, KV2.1 (Homo sapiens, UniProt Q14721); assay: Tl+-flux assay in HEK-293 cells, KV2.1; conditions: HEK293; 10 µM test compound; relative to control guangxitoxin 1E; read-out: Percent Inhibition ± SEM, KV2.1
T4 construct: expressed in transfected cells; host or cells: HEK293
Description: as §1, §2, §3

[5] = target: T5, SLICK (Homo sapiens, UniProt Q6UVM3); assay: Tl+-flux assay in HEK-293 cells, SLICK; conditions: 10 µM test compound
T5 construct: expressed in transfected cells; host or cells: HEK293
Description: as §1, §2, §3

[6] = target: T6, NaV1.7 (Homo sapiens, UniProt Q15858); assay: Tl+-flux assay in HEK-293 cells, NaV1.7; conditions: HEK293; 10 µM test compound; relative to control TC-N 1752; read-out: Percent Inhibition ± SEM, NaV1.7
T6 construct: expressed in transfected cells; host or cells: HEK293
Description: as §1, §2, §3

[7] = target: T7, GIRK 1/2 (Homo sapiens, UniProt P48051+P48549); assay: Tl+-flux assay in HEK-293 cells, GIRK 1/2; conditions: HEK293; 10 µM test compound; relative to control SCH23390; read-out: Percent Inhibition ± SEM, GIRK 1/2
T7 construct: expressed in transfected cells; host or cells: HEK293
Description: as §1, §2, §3

[8] = target: T8, Maxi-K α1/β4 (Homo sapiens, UniProt Q12791); assay: Tl+-flux assay in HEK-293 cells, Maxi-K α1/β4; conditions: HEK293; 10 µM test compound; relative to control paxilline; read-out: Percent Inhibition ± SEM, Maxi-K α1/β4
T8 construct: expressed in transfected cells; host or cells: HEK293
Description: as §1, §2, §3

T5 sequence (Q6UVM3 whole entry): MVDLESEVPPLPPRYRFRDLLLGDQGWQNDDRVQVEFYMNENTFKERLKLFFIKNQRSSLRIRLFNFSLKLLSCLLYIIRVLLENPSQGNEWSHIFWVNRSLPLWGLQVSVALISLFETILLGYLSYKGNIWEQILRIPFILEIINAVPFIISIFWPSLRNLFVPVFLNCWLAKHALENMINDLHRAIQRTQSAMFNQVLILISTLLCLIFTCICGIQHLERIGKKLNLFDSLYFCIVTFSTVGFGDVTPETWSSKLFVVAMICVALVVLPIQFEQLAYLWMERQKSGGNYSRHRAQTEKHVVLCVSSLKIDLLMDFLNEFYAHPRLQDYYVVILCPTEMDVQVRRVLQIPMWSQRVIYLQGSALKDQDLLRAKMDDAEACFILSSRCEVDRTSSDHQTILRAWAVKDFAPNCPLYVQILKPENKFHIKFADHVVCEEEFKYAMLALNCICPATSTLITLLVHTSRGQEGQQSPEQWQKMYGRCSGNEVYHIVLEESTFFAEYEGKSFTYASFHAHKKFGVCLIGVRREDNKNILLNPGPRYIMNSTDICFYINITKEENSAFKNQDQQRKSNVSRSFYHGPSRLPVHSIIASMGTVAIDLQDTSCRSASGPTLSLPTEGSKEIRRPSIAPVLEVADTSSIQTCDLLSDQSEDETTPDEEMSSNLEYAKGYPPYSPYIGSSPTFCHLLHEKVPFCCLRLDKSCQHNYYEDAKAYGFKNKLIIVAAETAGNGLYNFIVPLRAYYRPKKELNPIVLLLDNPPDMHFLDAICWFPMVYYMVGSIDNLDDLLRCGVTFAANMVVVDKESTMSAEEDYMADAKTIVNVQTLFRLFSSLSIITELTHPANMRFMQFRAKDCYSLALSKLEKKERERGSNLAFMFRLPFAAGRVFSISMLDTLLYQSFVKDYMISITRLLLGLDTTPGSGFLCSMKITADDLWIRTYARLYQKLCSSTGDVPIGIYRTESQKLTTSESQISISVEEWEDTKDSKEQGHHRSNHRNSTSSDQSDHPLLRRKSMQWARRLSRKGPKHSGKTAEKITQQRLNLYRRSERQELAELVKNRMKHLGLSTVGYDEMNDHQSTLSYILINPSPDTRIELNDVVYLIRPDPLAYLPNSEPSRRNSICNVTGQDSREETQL
T4 sequence (Q14721 whole entry): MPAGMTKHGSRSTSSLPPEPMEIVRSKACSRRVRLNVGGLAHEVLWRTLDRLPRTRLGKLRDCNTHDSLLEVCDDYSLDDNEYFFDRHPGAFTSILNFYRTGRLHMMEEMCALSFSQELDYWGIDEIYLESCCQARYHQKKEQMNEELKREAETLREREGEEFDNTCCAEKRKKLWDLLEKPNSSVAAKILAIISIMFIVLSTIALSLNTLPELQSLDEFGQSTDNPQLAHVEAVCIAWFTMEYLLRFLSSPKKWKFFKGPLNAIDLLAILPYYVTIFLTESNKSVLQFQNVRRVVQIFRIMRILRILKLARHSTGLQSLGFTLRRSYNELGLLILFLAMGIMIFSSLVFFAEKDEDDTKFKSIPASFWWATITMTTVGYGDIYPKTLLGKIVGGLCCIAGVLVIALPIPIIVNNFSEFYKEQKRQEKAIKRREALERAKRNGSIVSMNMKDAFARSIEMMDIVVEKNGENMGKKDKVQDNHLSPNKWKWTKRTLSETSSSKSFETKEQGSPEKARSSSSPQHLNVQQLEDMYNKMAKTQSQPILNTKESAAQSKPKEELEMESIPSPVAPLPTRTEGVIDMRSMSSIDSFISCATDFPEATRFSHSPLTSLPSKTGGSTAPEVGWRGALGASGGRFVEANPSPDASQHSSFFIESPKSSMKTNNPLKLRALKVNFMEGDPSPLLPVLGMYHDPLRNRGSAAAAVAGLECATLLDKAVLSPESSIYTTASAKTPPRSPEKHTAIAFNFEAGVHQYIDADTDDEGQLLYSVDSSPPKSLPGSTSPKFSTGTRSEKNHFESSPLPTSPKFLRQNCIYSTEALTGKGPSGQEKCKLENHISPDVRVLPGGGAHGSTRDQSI
T3 sequence (O95180 whole entry): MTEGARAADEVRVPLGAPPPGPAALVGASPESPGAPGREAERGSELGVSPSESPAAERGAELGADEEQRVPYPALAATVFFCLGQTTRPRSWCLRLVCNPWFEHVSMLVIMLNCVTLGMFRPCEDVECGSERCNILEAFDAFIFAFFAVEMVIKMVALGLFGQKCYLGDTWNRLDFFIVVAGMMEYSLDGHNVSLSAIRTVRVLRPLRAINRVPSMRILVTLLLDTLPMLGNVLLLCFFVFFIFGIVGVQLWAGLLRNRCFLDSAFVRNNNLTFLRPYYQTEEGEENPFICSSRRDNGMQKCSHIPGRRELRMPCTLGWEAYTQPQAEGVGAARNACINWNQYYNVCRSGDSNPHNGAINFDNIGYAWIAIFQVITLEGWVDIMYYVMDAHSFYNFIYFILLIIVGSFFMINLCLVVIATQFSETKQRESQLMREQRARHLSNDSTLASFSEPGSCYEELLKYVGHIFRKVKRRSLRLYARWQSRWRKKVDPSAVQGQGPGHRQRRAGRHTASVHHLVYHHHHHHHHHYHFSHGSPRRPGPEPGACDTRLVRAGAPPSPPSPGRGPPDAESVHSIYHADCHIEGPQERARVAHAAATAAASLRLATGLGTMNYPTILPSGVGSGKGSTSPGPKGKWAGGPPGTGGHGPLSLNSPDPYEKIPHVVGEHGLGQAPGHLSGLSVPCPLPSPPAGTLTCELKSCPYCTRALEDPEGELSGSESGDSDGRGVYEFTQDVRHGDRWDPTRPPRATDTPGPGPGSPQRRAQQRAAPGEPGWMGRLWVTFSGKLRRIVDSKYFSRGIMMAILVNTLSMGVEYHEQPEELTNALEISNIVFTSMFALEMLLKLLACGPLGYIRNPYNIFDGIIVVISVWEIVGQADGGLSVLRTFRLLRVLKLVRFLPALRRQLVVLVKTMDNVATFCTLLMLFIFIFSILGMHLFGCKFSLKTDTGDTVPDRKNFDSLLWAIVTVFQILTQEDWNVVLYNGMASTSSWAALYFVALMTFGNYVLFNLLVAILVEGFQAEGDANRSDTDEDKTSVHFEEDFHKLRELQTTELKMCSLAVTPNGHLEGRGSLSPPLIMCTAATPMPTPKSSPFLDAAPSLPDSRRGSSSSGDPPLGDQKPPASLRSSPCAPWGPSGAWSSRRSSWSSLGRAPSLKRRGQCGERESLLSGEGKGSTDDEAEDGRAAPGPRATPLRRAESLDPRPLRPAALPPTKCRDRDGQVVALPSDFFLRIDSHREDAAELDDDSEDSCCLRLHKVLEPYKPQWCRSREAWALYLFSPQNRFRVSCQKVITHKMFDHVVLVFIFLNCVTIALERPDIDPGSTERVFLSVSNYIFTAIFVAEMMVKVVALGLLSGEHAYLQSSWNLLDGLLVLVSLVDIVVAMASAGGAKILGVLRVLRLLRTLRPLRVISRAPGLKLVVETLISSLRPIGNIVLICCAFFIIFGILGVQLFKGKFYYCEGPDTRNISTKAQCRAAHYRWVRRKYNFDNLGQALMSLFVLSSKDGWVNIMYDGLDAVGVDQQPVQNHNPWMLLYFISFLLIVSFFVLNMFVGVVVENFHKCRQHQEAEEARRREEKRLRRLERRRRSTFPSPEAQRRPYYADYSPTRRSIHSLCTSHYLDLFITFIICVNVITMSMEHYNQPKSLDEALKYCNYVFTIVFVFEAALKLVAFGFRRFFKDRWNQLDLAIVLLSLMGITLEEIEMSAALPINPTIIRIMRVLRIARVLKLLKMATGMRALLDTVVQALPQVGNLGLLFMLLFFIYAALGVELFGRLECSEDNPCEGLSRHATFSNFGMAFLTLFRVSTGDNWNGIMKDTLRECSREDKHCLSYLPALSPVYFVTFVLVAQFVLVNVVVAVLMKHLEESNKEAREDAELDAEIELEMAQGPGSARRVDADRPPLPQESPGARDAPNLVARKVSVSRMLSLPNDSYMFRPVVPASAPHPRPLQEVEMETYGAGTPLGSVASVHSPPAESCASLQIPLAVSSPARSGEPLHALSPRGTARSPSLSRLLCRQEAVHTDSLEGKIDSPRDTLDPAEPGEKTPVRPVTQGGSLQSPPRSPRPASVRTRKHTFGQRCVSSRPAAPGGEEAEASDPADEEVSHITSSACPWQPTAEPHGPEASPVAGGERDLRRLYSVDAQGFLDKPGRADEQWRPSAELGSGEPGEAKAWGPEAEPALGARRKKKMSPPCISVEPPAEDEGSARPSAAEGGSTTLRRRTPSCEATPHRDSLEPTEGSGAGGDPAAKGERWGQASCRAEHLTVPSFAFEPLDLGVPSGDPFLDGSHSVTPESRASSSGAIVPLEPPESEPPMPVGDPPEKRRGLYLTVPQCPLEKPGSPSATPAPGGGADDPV

Row | Compound | inhibition at 10 µM [1] | inhibition at 120 s, 10 µM [2] | inhibition at 10 µM [3] | inhibition at 10 µM [4] | Percent activation ± SEM, SLICK ([5]; activator, relative to control acetazolamide) | inhibition at 10 µM [6] | inhibition at 10 µM [7] | inhibition at 10 µM [8] | inhibition at 10 µM ([5]; HEK293, relative to control SKF96365, read-out: Percent Inhibition ± SEM, SLICK)
1 | CC(C)(Oc1ccc(Cl)cc1)C(=O)Nc1cnc(Oc2c(F)cccc2F)nc1 [Analog 40] | 27 ± 11% | 0.9 ± 2.9% | 10 ± 0.82% | 13 ± 5% | 36% and 36 ± 8.8 (activator) ^3% | 7.5 ± 1.7% | 6.8 ± 3.3% | 10 ± 7.4% | –
2 | CN(c1ccc(C#N)cc1)c1ncc(NC(=O)C(C)(C)Oc2ccc(Cl)cc2)cn1 [Analog 66] | 30 ± 2.6% | 13 ± 3.3% | 32 ± 2.4% | 10 ± 1.6% | – | 17 ± 1.8% | 6.4 ± 1.5% | 22 ± 2.5% | 16 ± 1.4%
